These results are taken from patent publication US6080871A, “Sulfonamides and sulfamides as H3 receptor antagonists” (James Black Foundation Limited, priority 1996, dated 2000).

Where two headings read alike, the source gives them in different places.

In one experiment the target is T1, H3 receptor (Cavia porcellus, UniProt Q9JI35).
T1 construct: the longitudinal muscle layer and adhering myenteric plexus was teased away; from tissue; host or cells: ileal longitudinal muscle with adhering myenteric plexus of male Dunkin-Hartley guinea pigs
Description: H3 receptor bioassay (functional assay), guinea pig ileal longitudinal muscle myenteric plexus. It counts as cell-based. As to conditions: electrically stimulated guinea pig ileum; for Kb: antagonism of R-(α)-methylhistamine E/[A] curve, Schild's methods, variance ±0.15 log units, read-out: pKB (functional assay) (converted). As to the method: The biological activity of the compounds of the examples was measured using the ileal longitudinal muscle, myenteric plexus assay described by Paton and Aboo Zar (J. Physiol. 194, 13-33 (1968)). Male Dunkin-Hartley guinea pigs (250-300 g) were employed. Briefly, a 50 cm portion of ileum proximal to the caecum was removed, after discarding the terminal 20 cm. Ileal segments (3 cm) were cleaned by passing Krebs-Henseleit buffer containing 3 μM mepyramine gently through the ileum using a Pasteur pipette (size: 13.8 cm length, 0.65 cm diameter). To avoid unnecessary damage to the tissue, Krebs-Henseleit buffer was passed through the ileal segment, while it was lying horizontally on a petri dish. Therefore, the ileum was not over-distended and the buffer flowed through with ease. Each segment was then passed over a Pasteur pipette and the longitudinal muscle layer and adhering myenteric plexus was teased away using moist cotton wool, by stroking tangentially away from the mesenteric attachment. The tissues were suspended in 20 ml organ baths containing Krebs-Henseleit buffer at 37±1° C. and gassed with […]. The tissues were ligated to two parallel stainless steel wires, situated between two platinum electrodes (0.76 cm length, 0.06 cm diameter). All measurements were recorded isometrically (Grass FTO3 transducer). Following an initial loading tension of 1 g, the tissues were stimulated with electrical pulses at a frequency of 0.1 Hz and a pulse duration of 0.5msec, as described by Kosterlitz & Watt (1968). Initially, the tissues were stimulated at supramaximal (1.3 fold times maximal) voltage for a period of 30 min and then the tissues were washed and re-stimulated. A "sighter dose" of the selective histamine H3 -receptor agonist, R-(α)-methylhistamine(0.3 μM) (Arrang et al., 1987), was administered. Upon generation of response, the "sighter dose" was removed from the tissues by "washout" (6 washes over 60 min) and during this period the electrical stimulation was switched off. The tissues were then re-stimulated and allowed to stabilise prior to the addition of drug treatments, which were allocated on a randomised block basis to the organ baths. Following the incubation period, a single cumulative E/[A] curve was obtained. The experimental E/[A] curve data was expressed as the percentage inhibition of the peak height of electrically-stimulated contraction. Antagonist affinity values were calculated from the degree of rightward shift of the R-(α)-methylhistamine E/[A] curves using Schild's methods (Arunlatcshama & Schild, 1949).
(§1) Typical variance in the functional assay is ±0.15 log units. Typical variance in the binding assay is ±0.12 log units. This means that if the discrepancy between the two assays is greater than about 0.5 log units, then this difference on average is significant.

A further experiment addresses T2, Histamine H3 (Cavia porcellus, UniProt Q9JI35).
T2 construct: ileum longitudinal muscle myenteric plexus membranes; from tissue; host or cells: ileum longitudinal muscle myenteric plexus membranes of male Dunkin Hartley guinea pigs
Put plainly: Histamine H3 radioligand binding assay, [3H]-R-α-methylhistamine, guinea pig ileum longitudinal muscle myenteric plexus membranes. As to the method:
Histamine H3 Radioligand Binding Assay
Male Dunkin Hartley guinea pigs (200-300 g) were used. The small intestine was rapidly removed (cut ~5 cm from caecum and 5 cm from stomach) and placed in ice-cold 20 mM Hepes-NaOH buffer (pH7.4 at 21±3° C.). The tissue was cut into ~10 cm segments, flushed through with ice-cold 20 mM Hepes-NaOH buffer and placed in a beaker containing fresh buffer at 4° C. 10 cm segments of ileum were threaded onto a glass pipette and the longitudinal muscle myenteric plexus was peeled away from the circular muscle using damp cotton-wool. Longitudinal muscle myenteric plexus was immediately placed in ice-cold Viaspan® solution (~100 ml for tissue from 3 guinea pigs) and placed in the refrigerator for 24 hours.
Pre-soaked tissue was weighed and minced with scissors. The tissue was then homogenised in Viaspan® using a polytron (Kinematica AG; PT-DA 3020/2TS, 3×~1-2 s). 50 ml of 500 mM Tris HCl (pH6.9 at 21±3° C.) was added to the tissue and the mixture centrifuged at 39,800×g for 12 min at 4° C. The supernatant was discarded and rehomogenised in 100 ml ice-cold 20 mM Hepes-NaOH buffer (pH7.4 at 21±3° C.) using a teflon-in-glass homogeniser (setting 10; 3×). The homogenate was recentrifuged at 39,800×g and the pellet resuspended in 20 mM Hepes-NaOH buffer (pH7.4 at 21±3° C.), to a tissue concentration of 50 mg.ml^-1, using a polytron (Brinkman, PT10, 3×~1 s).
Guinea pig ileum longitudinal muscle myenteric plexus membranes (400 μl) were incubated for 165 min at 21±3° C. in a final volume of 500 μl with 20 mM Hepes-NaOH buffer containing [^3 H]-R-α-methylhistamine (50 μl; 3 nM) and competing compound. Total and non-specific binding of [^3 H]-R-α-methylhistamine were defined using 50 μl of buffer and 50 μl of 10 μM thioperamide, respectively. The assay was terminated by rapid filtration through Whatman GF/B filters, presoaked (2 hr) in 0. 1% polyethyleneimine,using a Brandell Cell Harvester. The filters were washed (3×3 ml) with ice-cold 50 mM Tris-HCl (pH6.9 at 21±3° C.), transferred into scintillation vials, 5 ml liquid scintillation cocktail was added and after 4 hours the bound radioactivity was determined by counting (4 min) in a Beckman liquid scintillation counter.
Data are analysed using GraphPad prism and the general equation for a competition curve with variable Hill slope (nH).
Y=Non-specific binding+(Total binding-Non-specific binding)/1+10^((logIC.sbsp.50^-X).n.sbsp.H^)
X is the log concentration of competing compound, Y is the binding obtained at each concentration of X, pIC50 is the concentration of the competitor required to compete for half of the specific binding.
The IC50 is converted to the K1 using the Cheng Prusoff equation, […]
IC50 is the concentration of competitor required to compete for half the specific binding, L is the radioligand concentration used, KD is the equilibrium dissociation constant for the radioligand determined by saturation experiments.
as §1

Setting [1] is: 3 nM [3H]-R-α-methylhistamine, 165 min, 21±3° C., Cheng Prusoff, variance ±0.12 log units, read-out: pK1 (binding assay) (converted).
Setting [2] is: 3 nM [3H]-R-α-methylhistamine, 165 min, 21±3° C., Cheng Prusoff, variance ±0.12 log units.

T1 sequence (Q9JI35 whole entry): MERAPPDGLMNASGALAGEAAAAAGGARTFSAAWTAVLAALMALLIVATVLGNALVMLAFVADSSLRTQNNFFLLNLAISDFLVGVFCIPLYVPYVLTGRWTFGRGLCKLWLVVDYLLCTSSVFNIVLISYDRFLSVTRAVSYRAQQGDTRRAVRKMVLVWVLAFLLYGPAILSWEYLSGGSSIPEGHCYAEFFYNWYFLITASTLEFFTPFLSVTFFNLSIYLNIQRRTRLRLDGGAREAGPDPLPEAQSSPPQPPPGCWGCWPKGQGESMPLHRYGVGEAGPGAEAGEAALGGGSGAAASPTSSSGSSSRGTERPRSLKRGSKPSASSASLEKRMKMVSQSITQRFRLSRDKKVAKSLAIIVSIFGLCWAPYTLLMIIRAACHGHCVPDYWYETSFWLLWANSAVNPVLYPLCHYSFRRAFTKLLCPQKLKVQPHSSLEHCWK
T2 sequence (Q9JI35 whole entry): as above

Take `O=S(=O)(NCCCCCCc1c[nH]cn1)NCc1ccc(Br)cc1` [Example 58]: the Kb on H3 receptor was 0.00105 µM. Also, at Histamine H3 (setting [1]), the Ki is 0.00437 µM.
Turning to `O=S(=O)(NCCCCc1c[nH]cn1)NCC1CCCCC1` [Example 51, N-[4-(4(5)-Imidazoyl)butyl]-N'-cyclohexylmethyl-sulfamide], at H3 receptor, the Kb was 0.0977 µM. On Histamine H3 (setting [1]), the Ki is 0.0794 µM.
For `O=S(=O)(NCCCCCCCCc1c[nH]cn1)NCc1ccc(Cl)cc1` [Example 39, N-[8-(4(5)-Imidazoyl)octyl]-N'-(4-chlorophenyl)methyl-sulfamide], the Kb at H3 receptor is 0.0427 µM. Moreover, the Ki on Histamine H3 (setting [1]) was 0.0158 µM.
Regarding `O=S(=O)(NCCCCCCc1c[nH]cn1)NCc1ccc(Cl)cc1` [Example 15, N-[6-(4(5)-Imidazoyl)hexyl]-N'-(4-chlorophenyl)methyl-sulfamide], the Kb at H3 receptor was 0.0017 µM. In addition, the “pK1 (binding assay)” value at Histamine H3 (setting [2]) is recorded as 8.36.
The like results for `O=S(=O)(NCCCCCCCc1c[nH]cn1)c1ccc2ccccc2c1` [Example 29] were, in that order, 0.132 µM and 7.40.
In the same order, the values of `O=S(=O)(NCCCCCCCc1c[nH]cn1)NCc1ccc(Cl)cc1` [Example 38, N-[7-(4(5)-Imidazoyl)heptyl]-N'-(4-chlorophenyl)methyl-sulfamide] are 0.00427 µM and 8.15.
For the compound `CN(CCCCc1c[nH]cn1)S(=O)(=O)NCc1ccc(Cl)cc1` [Example 69, N'-(4-Chlorophenyl)methyl-N-[4-(4(5)-imidazoyl)butyl]-N-methyl-sulfamide], the Kb at H3 receptor was 0.0012 µM. Also, on Histamine H3 (setting [1]), the Ki is 0.00186 µM.
Take `CN(CCCCc1c[nH]cn1)S(=O)(=O)N(C)Cc1ccc(Cl)cc1` [Example 68, N'-(4-Chlorophenyl)methyl-N,N'-dimethyl-N-[4-(4(5)-imidazoyl)butyl]-sulfamide]: the Kb on H3 receptor was 0.017 µM. On Histamine H3 (setting [1]), the Ki is 0.0112 µM.
Take `O=S(=O)(NCCCCc1c[nH]cn1)c1ccc2ccccc2c1` [Example 7, N-[4-(4(5)-Imidazoyl)butyl]-2-naphthalenesulfonamide]: the Kb at H3 receptor is 0.155 µM. The “pK1 (binding assay)” value on Histamine H3 (setting [2]) is 7.42.
With `O=S(=O)(NCCCCc1c[nH]cn1)NCc1cccc(Cl)c1` [Example 42, N-[4-(4(5)-Imidazoyl)butyl]-N'-(3-chlorophenyl)methyl-sulfamide], the Kb at H3 receptor was 0.0138 µM. In addition, on Histamine H3 (setting [1]), the Ki is 0.0162 µM.
Take `COc1ccc(CNS(=O)(=O)NCCCCc2c[nH]cn2)cc1` [Example 48, N-[4-(4(5)-Imidazoyl)butyl]-N'-(4-methoxyphenyl)methyl-sulfamide]: the Kb on H3 receptor is 0.0871 µM. For the same compound, on Histamine H3 (setting [2]), the “pK1 (binding assay)” value came out at 7.58.
In the same order, the values of `O=S(=O)(NCCCCc1c[nH]cn1)NCc1ccc(Br)cc1` [Example 45, N-[4-(4(5)-Imidazoyl)butyl]-N'-(4-bromophenyl)methyl-sulfamide] are 0.00123 µM and 8.71.
Regarding `C[C@H](Cc1c[nH]cn1)NS(=O)(=O)c1ccc2ccccc2c1` [Example 71, (R)-(+)-N-[2-(4(5)-Imidazoyl)-1-methyl-ethyl]-2-naphthalenesulfonamide], at H3 receptor (printed in the pKB column, read-out: p[A]50 (functional assay) (converted)), the EC50 is 0.776 µM. Also, on Histamine H3 (setting [2]), the “pK1 (binding assay)” value is on record as 8.44.
Take `O=S(=O)(NCCCCCCCCCCc1c[nH]cn1)c1ccc2ccccc2c1` [Example 31, N-[10-(4(5)-Imidazoyl)decyl]-2-naphthalenesulfonamide]: on H3 receptor, the Kb was 1.62 µM. In addition, the “pK1 (binding assay)” value on Histamine H3 (setting [2]) is 7.07.
In the case of `O=S(=O)(NCCCCCc1c[nH]cn1)NCc1ccc(C(F)(F)F)cc1` [Example 63, N-[5-(4(5)-Imidazoyl)pentyl]-N'-(4-(trifluoromethyl)phenyl)methyl-sulfamide], on H3 receptor, the Kb was 0.00407 µM. For the same compound, on Histamine H3 (setting [1]), the Ki was 0.00661 µM.
With `O=S(=O)(NCCCCCc1c[nH]cn1)NCc1ccc(Br)cc1` [Example 64, N-[5-(4(5)-Imidazoyl)pentyl]-N'-(4-bromophenyl)methyl-sulfamide], the Kb at H3 receptor was 0.00389 µM. Besides, the Ki on Histamine H3 (setting [1]) is 0.00501 µM.
Consider `O=S(=O)(NCCCCc1c[nH]cn1)NCc1ccc(Cl)c(Cl)c1` [Example 41, N-[4-(4(5)-Imidazoyl)butyl]-N'-(3,4-dichlorophenyl)methyl-sulfamide], for which the Kb on H3 receptor is 0.00389 µM. Further, the Ki on Histamine H3 (setting [1]) is 0.00427 µM.
For `O=S(=O)(Cc1ccc(Cl)cc1)NCCCCCCc1c[nH]cn1` [Example 11, N-[6-(4(5)-Imidazoyl)hexyl]-(4-chlorophenyl)methanesulfonamide], the Kb on H3 receptor was 0.00977 µM. Also, at Histamine H3 (setting [2]), the “pK1 (binding assay)” value is 7.95.
`O=S(=O)(NCCCCCCc1c[nH]cn1)NCc1ccc(F)cc1` [Example 59, N-[6-(4(5)-Imidazoyl)hexyl]-N'-(4-fluorophenyl)methyl-sulfamide]: the Kb on H3 receptor is 0.00372 µM. Further, the Ki on Histamine H3 (setting [1]) was 0.00832 µM.
In the case of `O=S(=O)(Cc1ccc(Cl)cc1)NCCCCCCCc1c[nH]cn1` [Example 32, N-[7-(4(5)-Imidazoyl)heptyl]-(4-chlorophenyl)methanesulfonamide], at H3 receptor, the Kb is 0.0437 µM. For the same compound, the “pK1 (binding assay)” value on Histamine H3 (setting [2]) turned out to be 7.44.
As for `O=S(=O)(CCc1ccc(Cl)cc1)NCCCCCc1c[nH]cn1` [Example 54, N-[5-(4(5)-Imidazoyl)pentyl]-2-(4-chlorophenyl)ethanesulfonamide], the Kb on H3 receptor is 0.0158 µM. In addition, the Ki on Histamine H3 (setting [1]) is 0.01 µM.
In the case of `O=S(=O)(NCCCCCc1c[nH]cn1)NCc1ccc(I)cc1` [Example 66, N-[5-(4(5)-Imidazoyl)pentyl]-N'-(4-iodophenyl)methyl-sulfamide], the Kb at H3 receptor is 0.00871 µM. The Ki on Histamine H3 (setting [1]) is 0.00776 µM.
For `O=S(=O)(CCc1ccc(Cl)cc1)NCCCc1c[nH]cn1` [Example 53, N-[3-(4(5)-Imidazoyl)propyl]-2-(4-chlorophenyl)ethanesulfonamide], the Kb on H3 receptor is 0.182 µM. Further, the Ki at Histamine H3 is 0.0562 µM.
Take `O=S(=O)(NCCCc1c[nH]cn1)NCCc1ccc(Cl)cc1` [Example 56, N-[3-(4(5)-Imidazoyl)propyl]-N'-2-(4-chlorophenyl)ethyl-sulfamide]: the Kb on H3 receptor is 0.447 µM. Moreover, the Ki at Histamine H3 (setting [1]) is 0.138 µM.
